Data as given in patent EP0230013A1, “New anthracycline derivatives, uses thereof as antitumor agent and production thereof” (ZAIDAN HOJIN BISEIBUTSU KAGAKU KENKYU KAI, priority 1985, dated 1987).
Like-named read-outs stand apart in the source and are kept apart here.

What was measured:
Leukemia P 388 = conditions: cited from earlier work
Leukemia L-1210 = conditions: dosage of 25 mg/kg, single dose per day, intraperitoneally for 9 days, Leukemia L-1210 mice; cited from earlier work
[1] = Acid hydrolysis of the glycoside linkage, analysed by TLC (Test 2); format: physicochemical
From the text: A further advantage of the anthracycline derivatives of formula (I) according to this invention is in that the susceptibility of the glycoside linkage to be broken by acid hydrolysis is very low. This is, we believe, to be one of reasons why the compounds of this invention are of low toxicity. […] Of course, a high chemical stability of a compound in vitro is not always related to its stability against hydrolysis in vivo, but it may be assumed in view of high anticancer effects in vivo of the compounds of this invention that the glycoside linkage of those compounds is of high stability in vivo, too. In any case, it is true that such high chemical stability of the glycoside linkage of the compounds of this invnetion is advantageous in that it makes the handling of those compounds easy in chemical applications. Test 2 given below illustrates the high stability of the glycoside linkage of the compounds of this invention.
Daunomycin (I mg) was dissolved in a mixture (0.1 ml) of 0.2 N^*HCI-80% CH3CN-H,O (^* the 0.2 N concentration of HCI being of the said mixture) and the solution was heated in an oil bath at 61 -62°C for 30 minutes to cause the hydrolysis. […] The reaction solution was allowed to stand at room temperature to deposit daunomycinone as red crystals.
FTDM (0.7 mg) was suspended in a mixture (0.1 ml) of 0.2 N HCI-80% CH,CN-H20 and the suspension was stirred in an oil bath at 61 -62°C for 30 minutes.
A futher amount (0.3 ml) of the mixture of 0.2N HCI-80% CH3CN-H20 was added to the reaction mixture, when the mixture substantially became a solution with a little amount of insolubles. Then, it was heated to 61-62°C under stirring to give a homogeneous solution.

Leukemia L-1210 cells = test: Antitumor activity on leukemia in mice caused by Leukemia L-1210 cells (Test I); format: in vivo; set-up: key: *: shows that a toxicity or its sign of the compound tested in the animals tested such as death due to toxicity or weight loss was observed; conditions: L-1210 mice
Experimental: Antitumor activity on leukemia in CDF, mice caused by Leukemia L-1210 cells
In this test, Compound Nos. I and 2 of this invention were assessed in comparison with daunomycin and adriamycin on their tumor inhibitory activity against leukemia in mice. Thus, CDF, mice were intraperitoneally transplanted with cells of Leukemia L-1210 (I ^x 10^5 cells/mouse). From 24 hours after i.p. transplantation of L 1210 cells, each compound to be tested was administered intraperitoneally for 9 consecutive days at once per day. Observation was made for 60 days where survival days of each mouse tested were recorded and percentage increase in lifespan of the treated mice, in comparison with control test wherein mice were treated only, with the administration of physiological saline, was calculated as T/C % where T is the mean survival days of the treated animals and C is the mean survival days of the untreated control animals.The test results are shown in Table I.

[2] = 0.2 N HCl-80% CH3CN-H2O, 61 -62°C (about 60°C), 30 minutes
[3] = Dose 5 mg/kg/day i.p. for 9 days

## COc1cccc2c1C(=O)c1c(O)c3c(c(O)c1C2=O)C[C@@](O)(C(C)=O)C[C@@H]3O[C@@H]1O[C@@H](C)[C@@H](OC(C)=O)[C@@H](OC(C)=O)[C@H]1I [Compound NSC 327,472, 7-O-(3,4-di-O-acetyl-2,6-dideoxy-2-iodo-a-L-talohexopyranosyl)daunomycinone]
Leukemia P 388; dosage of 12.5 mg/kg to 25 mg/kg
  increase (%) of survival days of the Leukemia P 388-inoculated mice treated: 172%
Leukemia P 388; dosage of 150 mg/kg
  increase (%) of survival days of the Leukemia P 388-inoculated mice treated: 162%

## COc1cccc2c1C(=O)c1c(O)c3c(c(O)c1C2=O)C[C@@](O)(C(C)=O)C[C@@H]3O[C@@H]1O[C@@H](C)[C@H](OC(C)=O)[C@@H](OC(C)=O)[C@H]1I [Compound NSC 331,962, 7-O-(3,4-di-O-acetyl-2,6-dideoxy-2-iodo-a-L-mannohexopyranosyl) daunomycinone]
Leukemia P 388; dosage of 50 mg/kg, Leukemia P 388 mice
  increase (in %) of survival days of the mice treated, compared to the mice untreated (T/C, %): 247%
Leukemia L-1210
  increase (in %) of survival days of the mice treated, as compared to the mice untreated (T/C, %): 196%

## COc1cccc2c1C(=O)c1c(O)c3c(c(O)c1C2=O)C[C@@](O)(C(C)=O)C[C@@H]3O[C@@H]1O[C@@H](C)[C@@H](O)[C@@H](O)[C@H]1F [Compound No. 1, 7-O-(2,6-dideoxy-2-fluoro-α-L-talopyranosyl)daunomycinone]
[1]; [2]
  acid hydrolysis (TLC): presence of the spot of FTDM only
[1]; 0.2N HCl-80% CH3CN-H2O, 61-62°C, further 3 hours
  acid hydrolysis (TLC): the spot of FTDM only
[1]; 1 N HCl in acetonitrile-water (4:1), 61-62°C (about 60°C), 8 hours, listed as Compound No. I
  acid hydrolysis (TLC): remains substantially as it is,without being decomposed
[1]; 1 N HCl in acetonitrile-water (4:1), 61-62°C (about 60°C), 8 hours, listed as FTDM
  acid hydrolysis (TLC): a spot of a trace amount of daunomycinone appeared, but most of FTDM was also present as it was

## COc1cccc2c1C(=O)c1c(O)c3c(c(O)c1C2=O)C[C@@](O)(C(C)=O)C[C@@H]3O[C@H]1C[C@H](N)[C@H](O)[C@H](C)O1 [Daunomycin, daunomycin]
[1]; [2]
  acid hydrolysis (TLC): disappearance of the spot of daunomycin
[1]; 0.2 N HCl-80% CH3CN-H2O, 61 -62°C (about 60°C), 30 minutes, listed as daunomycin
  acid hydrolysis (TLC): completely decomposed
Leukemia L-1210 cells; Dose 2.5 mg/kg/day i.p. for 9 days
  toxicity or its sign (death due to toxicity or weight loss): *
Leukemia L-1210 cells; [3]
  toxicity or its sign (death due to toxicity or weight loss): *

## COc1cccc2c1C(=O)c1c(O)c3c(c(O)c1C2=O)C[C@@](O)(C(=O)CO)C[C@@H]3O[C@H]1C[C@H](N)[C@H](O)[C@H](C)O1 [Adriamycin, adriamycin]
Leukemia L-1210 cells; [3]
  toxicity or its sign (death due to toxicity or weight loss): *
